We go through two compounds from patent publication US20200383985A1, “Inhibitors of Protease Activated Receptor-2” (Endosome Therapeutics, Inc., priority 2017, published 2020).

“Also recorded” adds a separate entry of the source.

The subject of one series is mice. The series can be described thus: Colonic compliance in awake mice. It is filed as in vivo, mouse. To be noted: awake healthy mice. The procedure:
Noxious colorectal distension (CRD) triggers the visceromotor response (VMR), a nociceptive brainstem reflex consisting of contraction of abdominal muscles, which can be monitored by electromyography. This approach allows assessment of visceral sensitivity in awake mice (Castro, J. et al., Br. J. Pharmacol. 2017, 175(12): 2384-2398). To examine protease-induced hy-persensitivity, a protease mixture (10 nM trypsin+100 nM NE+100 nM CS) or vehicle (saline) (100 μL) was instilled into the colon (enema) of healthy mice. After 15 min, the VMR was measured in response to graded CRD (20-80 mm Hg) with a barostat balloon. In vehicle-treated mice, CRD induced a graded VMR (FIG. 9I). […] Because alterations in the compliance of the colon can alter VMR to CRD, the pressure/volume relationship was measured at all distending pressures. Compliance of the colon was unaffected by the protease mixture or I-343 (FIGS. 21E and F). […]
Electromyography (EMG) of abdominal muscles was used to monitor VMR to CRD (Eichel, K. et al., Nat. Cell Biol. 2016, 18(3): 303-310). […] The EMG signal was recorded (NL100AK headstage), amplified (NL104), filtered (NL 125/126, Neurolog, Digitimer Ltd, bandpass 50-5000 Hz), and digitized (CED 1401, Cambridge Electronic Design) for off-line analysis using Spike2 (Cambridge Electronic Design). […]

The subject of series [1] is βARR1-RLuc8 or Gαq-RLuc8 and Rab5a-Venus. The series can be described thus: BRET of βARR1 and Gαq translocation to early endosomes in HEK293 cells. The settings on record: trypsin 100 nM. It counts as cell-based. As to the method: To determine whether trypsin induces translocation of βARR and Gαq to endosomes, we measured BRET between βARR1-RLuc8 or Gαq—RLuc8 and Rab5a-Venus in HEK293 cells. […] Immunofluorescence and structured illumination microscopy were used to localize PAR2-HA, Gαq and early endosomal antigen-1 (EEA1) in HEK-293 cells. In unstimulated cells, PAR2 was confined to the plasma membrane, although Gαq was detected in early endosomes (FIG. 18C). Trypsin (10 nM, 30 min) induced translocation of PAR2 to early endosomes containing Gαq. The results support the hypothesis that trypsin causes assembly of a PAR2/βARR/Gαq signalosome in early endosomes.
HEK293 cells were transiently transfected in 10 cm dishes (˜50% confluency) with: PAR2-RLuc8 (1 μg) and either RIT-Venus or Rab5a-Venus (both 4 μg); Flag-PAR2-HA (1 μg) and βARR1-RLuc8 (1 μg) plus Rab5a-Venus (4 μg); or Flag-PAR2-HA (1 μg) and Gαq-RLuc8 (0.5 μg), Gb (1 μg), Gg (1 μg) and Rab5a-Venus (4 μg). […] RLuc8 and YFP intensities were measured at 475±30 nm and 535±30 nm, respectively, using a LUMIstar Omega Microplate Reader (BMG LabTech) before and after challenge with proteases, biopsy supernatants or vehicle. Data are presented as a BRET ratio, calculated as the ratio of YFP to RLuc8 signals, and normalized to the baseline average, followed by vehicle subtraction. Treatment effects were determined by comparison of area under the curve values.
In general terms: Bioluminescence resonance energy transfer reports proximity on the nanometre scale.

On to `Cc1nc(C(=O)N2CCN(C(=O)c3cn4nc(-c5ccc(F)cc5)cc(C(C)(C)C)c4n3)C(C)(C)C2)n[nH]1` [Compound I-343, (8-(tert-butyl)-6-(4-fluorophenyl)imidazo[1,2-b]pyridazin-2-yl)(2,2-dimethyl-4-(5-methyl-1H-1,2,4-triazole-3-carbonyl)piperazin-1-yl)methanone], for which the “compliance of the colon (pressure/volume relationship)” value in the series on mice was “unaffected; also recorded: unchanged”.
For trypsin, in series [1], the “βARR1-RLuc8/Rab5a-Venus BRET and Gαq-RLuc8/Rab5a-Venus BRET” value is listed as “stimulated an increase”.
